ChEMBL document CHEMBL5331129, “Discovery of NAFLD-Improving Agents by Promoting the Degradation of Keap1” (J Med Chem, 2023)
Activity calls are given as the source filed them. No cut-off for these calls is given here.

How the values were obtained:
Mus musculus [1] = experiment: Antioxidant activity against MCD diet-induced oxidative stress in C57Bl/6 mouse model of NAFLD assessed as increase in SOD level in liver at 0.5 to 2 mg/kg,ip administrated for 4 weeks; assay type: functional, organism-based; conditions: dose 0.5-2 mg/kg
[2] = Acute toxicity in C57BL/6 mouse assessed as histopathological change in liver at 20 mg/kg,ip qd administrated for 3 consecutive days and measured on day 4 by hematoxylin and eosin staining based assay; assay type: organism-based; conditions: in vivo
Mus musculus [3] = experiment: Antioxidant activity against MCD diet-induced oxidative stress in C57Bl/6 mouse model of NAFLD assessed as decrease in liver ROS level at 0.5 to 2 mg/kg,ip administrated for 4 weeks by immunostaining analysis; assay type: functional, organism-based; conditions: dose 0.5-2 mg/kg
[4] = Toxicity in C57BL/6 mouse assessed as histopathological change in spleen at 2 mg/kg,ip qd administrated for 4 weeks by hematoxylin and eosin staining based assay; assay type: organism-based; conditions: in vivo, 672 h
[5] = target: T1, Protein cereblon/Kelch-like ECH-associated protein 1 (Mus musculus) (UniProt Q9Z2X8+Q8C7D2); experiment: PROTAC activity at CRBN/Keap1 in mouse AML12 cells assessed as degradation of Keap1 protein at 0.5 to 2 uM incubated for 24 hrs by Western blotting analysis; assay type: cell-based; conditions: dose 0.5-2 µM
[6] = Toxicity in MCD diet-induced oxidative stress in C57Bl/6 mouse model of NAFLD assessed as decrease in ratio of liver weight to body weight at ip administrated for 4 weeks […]; assay type: organism-based; conditions: in vivo, 672 h
AML12 [7] = experiment: Antioxidant activity against free fatty acid induced oxidative stress in mouse AML12 cells assessed as upregulation of HO-1 protein expression level at 0.125 to 0.5 uM incubated for 24 hrs by immunoblot analysis; assay type: functional, cell-based; conditions: dose 0.125-0.5 µM
[8] = Toxicity in C57BL/6 mouse assessed as histopathological change in liver at 2 mg/kg,ip qd administrated for 4 weeks by hematoxylin and eosin staining based assay; assay type: organism-based; conditions: in vivo, 672 h
AML12 [9] = experiment: Antioxidant activity against free fatty acid induced oxidative stress in mouse AML12 cells assessed as reduction in triglyceride level at 0.5 uM incubated for 24 hrs; assay type: functional, cell-based
[10] = target: T1, Protein cereblon/Kelch-like ECH-associated protein 1 (Mus musculus); experiment: PROTAC activity at CRBN/Keap1 in mouse AML12 cells assessed as degradation of Keap1 protein level at 1 uM preincubated with CDDO followed by compound addition and incubated for 24 hrs by Western blotting analysis; assay type: cell-based
AML12 [11] = experiment: Antioxidant activity against free fatty acid induced oxidative stress in mouse AML12 cells assessed as increase in SOD level at 0.125 to 0.5 uM; assay type: functional, cell-based; conditions: dose 0.125-0.5 µM
[12] = Toxicity in MCD diet-induced oxidative stress in C57Bl/6 mouse model of NAFLD assessed as body weight loss at 2 mg/kg,ip administrated for 4 weeks […]; assay type: organism-based; conditions: in vivo, 672 h
[13] = Acute toxicity in C57BL/6 mouse assessed as histopathological change in lung at 20 mg/kg,ip qd administrated for 3 consecutive days and measured on day 4 by hematoxylin and eosin staining based assay; assay type: organism-based; conditions: in vivo
Mus musculus [14] = experiment: Antioxidant activity against MCD diet-induced oxidative stress in C57Bl/6 mouse model of NAFLD assessed as reduction of serum AST level at 0.5 to 2 mg/kg,ip administrated for 4 weeks; assay type: functional, organism-based; conditions: dose 0.5-2 mg/kg
[15] = Cardiotoxicity in zebrafish at 10 uM observed at 48 hrs post fertilization; assay type: toxicity, Danio rerio
[16] = Toxicity in C57BL/6 mouse assessed as histopathological change in heart at 2 mg/kg,ip qd administrated for 4 weeks by hematoxylin and eosin staining based assay; assay type: organism-based; conditions: in vivo, 672 h
Mus musculus [17] = experiment: Antioxidant activity against MCD diet-induced oxidative stress in C57Bl/6 mouse model of NAFLD assessed as reduction of pericellular fibrosis in liver at ip administrated for 4 weeks by Sirius red staining based analysis; assay type: functional, organism-based
[18] = Acute toxicity in C57BL/6 mouse assessed as histopathological change in spleen at 20 mg/kg,ip qd administrated for 3 consecutive days and measured on day 4 by hematoxylin and eosin staining based assay; assay type: organism-based; conditions: in vivo
[19] = Acute toxicity in zebrafish at < 5 uM observed at 48 hrs post fertilization; design: species or system Danio rerio; conditions: in vivo
AML12 [20] = experiment: Antioxidant activity against free fatty acid induced oxidative stress in mouse AML12 cells assessed as downregulation of Keap1 protein expression level at 0.125 to 0.5 uM incubated for 24 hrs by immunofluorescence staining analysis; assay type: functional, cell-based; conditions: dose 0.125-0.5 µM
Mus musculus [21] = experiment: Antioxidant activity against MCD diet-induced oxidative stress in C57Bl/6 mouse model of NAFLD assessed as reduction of morphological change in liver at ip administrated for 4 weeks by hematoxylin and eosin staining based assay; assay type: functional, organism-based
Mus musculus [22] = experiment: Antioxidant activity against MCD diet-induced oxidative stress in C57Bl/6 mouse model of NAFLD assessed as downregulation of liver Keap1 protein expression level at 0.5 to 2 mg/kg,ip administrated for 4 weeks by immunohistochemical staining assay; assay type: functional, organism-based; conditions: dose 0.5-2 mg/kg
Mus musculus [23] = experiment: Antioxidant activity against MCD diet-induced oxidative stress in C57Bl/6 mouse model of NAFLD assessed as reduction of serum LDL-C level at ip administrated for 4 weeks; assay type: functional, organism-based
Mus musculus [24] = experiment: Antioxidant activity against MCD diet-induced oxidative stress in C57Bl/6 mouse model of NAFLD assessed as upregulation of liver Nrf2 protein expression level at 0.5 to 2 mg/kg,ip administrated for 4 weeks by immunofluorescence staining analysis; assay type: functional, organism-based; conditions: dose 0.5-2 mg/kg
[25] = Acute toxicity in C57BL/6 mouse assessed as histopathological change in kidney at 20 mg/kg,ip qd administrated for 3 consecutive days and measured on day 4 by hematoxylin and eosin staining based assay; assay type: organism-based; conditions: in vivo
AML12 [26] = experiment: Antioxidant activity against free fatty acid induced oxidative stress in mouse AML12 cells assessed as upregulation of Nrf2 protein expression level at 0.125 to 0.5 uM incubated for 24 hrs by immunoblot analysis; assay type: functional, cell-based; conditions: dose 0.125-0.5 µM
AML12 [27] = experiment: Antioxidant activity against free fatty acid induced oxidative stress in mouse AML12 cells assessed as downregulation of Keap1 protein expression level at 0.125 to 0.5 uM incubated for 24 hrs by immunoblot analysis; assay type: functional, cell-based; conditions: dose 0.125-0.5 µM
AML12 [28] = experiment: Antioxidant activity against free fatty acid induced oxidative stress in mouse AML12 cells assessed as reduction in total cholesterol level at 0.5 uM incubated for 24 hrs; assay type: functional, cell-based
AML12 [29] = experiment: Antioxidant activity against free fatty acid induced oxidative stress in mouse AML12 cells assessed as decrease in ROS level at 0.125 to 0.5 uM incubated for 24 hrs; assay type: functional, cell-based; conditions: dose 0.125-0.5 µM
AML12 [30] = experiment: Antioxidant activity against free fatty acid induced oxidative stress in mouse AML12 cells assessed as upregulation of NQO1 protein expression level at 0.125 to 0.5 uM incubated for 24 hrs by immunoblot analysis; assay type: functional, cell-based; conditions: dose 0.125-0.5 µM

T1 sequence (Q8C7D2 whole entry, looked up): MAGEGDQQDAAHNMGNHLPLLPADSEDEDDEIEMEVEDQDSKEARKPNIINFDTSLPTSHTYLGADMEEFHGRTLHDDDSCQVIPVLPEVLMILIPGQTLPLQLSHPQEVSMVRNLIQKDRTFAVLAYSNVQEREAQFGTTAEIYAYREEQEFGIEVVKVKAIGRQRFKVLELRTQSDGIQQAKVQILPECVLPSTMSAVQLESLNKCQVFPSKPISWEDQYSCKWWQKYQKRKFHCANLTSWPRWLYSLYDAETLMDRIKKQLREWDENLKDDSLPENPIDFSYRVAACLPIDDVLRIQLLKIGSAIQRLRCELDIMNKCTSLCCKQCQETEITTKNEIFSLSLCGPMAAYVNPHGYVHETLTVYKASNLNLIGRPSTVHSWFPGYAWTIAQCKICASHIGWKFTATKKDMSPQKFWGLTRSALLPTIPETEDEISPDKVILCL
T1 sequence (Q9Z2X8 whole entry, looked up): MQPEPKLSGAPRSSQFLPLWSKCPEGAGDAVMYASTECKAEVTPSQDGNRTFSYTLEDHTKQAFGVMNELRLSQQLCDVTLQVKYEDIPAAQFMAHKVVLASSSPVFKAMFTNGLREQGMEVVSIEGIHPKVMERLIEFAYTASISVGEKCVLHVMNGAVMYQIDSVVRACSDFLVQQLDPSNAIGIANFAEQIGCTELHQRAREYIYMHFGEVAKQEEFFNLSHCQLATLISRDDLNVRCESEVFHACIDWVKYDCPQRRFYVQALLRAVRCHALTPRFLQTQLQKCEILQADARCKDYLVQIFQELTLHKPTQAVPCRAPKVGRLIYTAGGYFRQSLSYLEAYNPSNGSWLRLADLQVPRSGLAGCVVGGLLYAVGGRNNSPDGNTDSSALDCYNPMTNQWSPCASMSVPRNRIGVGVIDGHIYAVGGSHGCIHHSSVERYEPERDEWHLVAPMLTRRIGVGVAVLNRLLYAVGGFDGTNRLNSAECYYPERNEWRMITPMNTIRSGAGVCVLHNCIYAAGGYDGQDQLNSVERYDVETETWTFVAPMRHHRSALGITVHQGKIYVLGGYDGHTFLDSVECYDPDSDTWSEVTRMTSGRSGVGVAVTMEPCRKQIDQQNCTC

Q: Which Activity (Mus musculus [1]) does the source give for `CC1(C)CC[C@]2(C(=O)NCCCCCNc3cccc4c3C(=O)N(C3CCC(=O)NC3=O)C4=O)CC[C@]3(C)[C@H](C(=O)C=C4C5(C)C=C(C#N)C(=O)C(C)(C)[C@@H]5CC[C@]43C)[C@@H]2C1` (single isomer, unassigned) here?
A: The Activity was “Active”.

Q: What about the Activity [2] of the same compound?
A: The Activity was “Non-Toxic”.

Q: What about the Activity (Mus musculus [3]) of the same compound?
A: Its Activity is “Active”.

Q: And the Activity [4]?
A: Its Activity is “Non-Toxic”.

Q: And the Activity [5]?
A: Its Activity is “Active”.

Q: What about the Activity [6] of the same compound?
A: Its Activity is “Non-Toxic”.

Q: What about the Activity (AML12 [7]) of the same compound?
A: The Activity was “Active”.

Q: What about the Activity [8] of the same compound?
A: The Activity was “Non-Toxic”.

Q: And the Activity (AML12 [9])?
A: The Activity was “Active”.

Q: And the Activity [10]?
A: Its Activity is “inactive”.

Q: And the Activity (AML12 [11])?
A: Its Activity is “Active”.

Q: What about the Activity [12] of the same compound?
A: The Activity was “Non-Toxic”.

Q: What about the Activity [13] of the same compound?
A: Its Activity is “Non-Toxic”.

Q: What about the Activity (Mus musculus [14]) of the same compound?
A: The Activity was “Active”.

Q: What about the Activity [15] of the same compound?
A: Its Activity is “Non-Toxic”.

Q: What about the Activity [16] of the same compound?
A: Its Activity is “Non-Toxic”.

Q: What about the Activity (Mus musculus [17]) of the same compound?
A: Its Activity is “Dose-Dependent Effect”.

Q: What about the Activity [18] of the same compound?
A: The Activity was “Non-Toxic”.

Q: What about the Activity [19] of the same compound?
A: The Activity was “Non-Toxic”.

Q: And the Activity (AML12 [20])?
A: Its Activity is “Active”.

Q: And the Activity (Mus musculus [21])?
A: Its Activity is “Dose-Dependent Effect”.

Q: What about the Activity (Mus musculus [22]) of the same compound?
A: The Activity was “Dose-Dependent Effect”.

Q: What about the Activity (Mus musculus [23]) of the same compound?
A: The Activity was “Dose-Dependent Effect”.

Q: And the Activity (Mus musculus [24])?
A: Its Activity is “Dose-Dependent Effect”.

Q: What about the Activity [25] of the same compound?
A: Its Activity is “Non-Toxic”.

Q: What about the Activity (AML12 [26]) of the same compound?
A: Its Activity is “Active”.

Q: What about the Activity (AML12 [27]) of the same compound?
A: Its Activity is “Active”.

Q: What about the Activity (AML12 [28]) of the same compound?
A: The Activity was “inactive”.

Q: And the Activity (AML12 [29])?
A: Its Activity is “Active”.

Q: And the Activity (AML12 [30])?
A: Its Activity is “Active”.
